The series can be described thus: Log Kow (octanol/water partition coefficient) by HPLC, OECD Test Method 117. The class given is physicochemical. To be noted: OECD 117. The method, then: Values of Log Kow (octanol/water partition coefficients) were determined by HPLC using the method described in Organization for Economic Cooperation and Development (OECD) Test Method 117, “Partition Coefficient (n-octanol/water), HPLC Method.”

As to `Fc1c(F)c(F)c(OC(=C(C(F)(F)F)C(F)(F)F)C(F)(F)C(F)(F)F)c(F)c1F` [Example 1, 1,2,3,4,5-Pentafluoro-6-[3,3,3-trifluoro-1-(1,1,2,2,2-pentafluoroethyl)-2-(trifluoromethyl)prop-1-enoxy]benzene], the “Log Kow” value is recorded as 6.1.
In the case of `F/C(Oc1c(F)c(F)c(F)c(F)c1F)=C(/F)C(F)(F)F` [Example 2, (E)-1,2,3,4,5-Pentafluoro-6-((perfluoroprop-1-en-1-yl)oxy)benzene], the “Log Kow” value is 4.7.
As to `F/C(=C(/C(F)(F)F)C(F)(Oc1c(F)c(F)c(F)c(F)c1F)C(F)(F)C(F)(F)F)C(F)(C(F)(F)F)C(F)(F)F` (stereo not drawn) [Example 3, (E)-1,2,3,4,5-Pentafluoro-6-((1,1,1,2,2,3,5,6,7,7,7-undecafluoro-4,6-bis(trifluoromethyl)hept-4-en-3-yl)oxy)benzene], the “Log Kow” value is on record as greater than 6.4.
The figure for `F/C(=C(/C(F)(F)F)C(F)(Oc1ccccc1)C(F)(F)C(F)(F)F)C(F)(C(F)(F)F)C(F)(F)F` (stereo not drawn) [Example 4, (E)-((1,1,1,2,2,3,5,6,7,7,7-Undecafluoro-4,6-bis(trifluoromethyl)hept-4-en-3-yl)oxy)benzene+isomers] is greater than 6.4; for `FC(F)(F)C(=C(Oc1ccccc1)C(F)(F)C(F)(F)F)C(F)(F)F` [Example 5, ((1,1,1,4,4,5,5,5-Octafluoro-2-(trifluoromethyl)pent-2-en-3-yl)oxy)benzene] it is 5.5; for `FC(F)(F)C(=C(Oc1cccc(C(F)(F)F)c1)C(F)(F)C(F)(F)F)C(F)(F)F` [Example 7, 1-((1,1,1,4,4,5,5,5-Octafluoro-2-(trifluoromethyl)pent-2-en-3-yl)oxy)-3-(trifluoromethyl)benzene] it is 6.1.

Values taken from patent publication US12414267B2, “Fluorinated aromatics and methods of using same” (3M INNOVATIVE PROPERTIES COMPANY, priority 2019, dated 2025).
